From patent publication US11980620B2, “Compounds and methods for treatment of Diamond Blackfan anemia” (THE CHILDREN'S MEDICAL CENTER CORPORATION, priority 2017, dated 2024)

How the values were obtained:
[1] = tested on: K562 erythroleukemia cells transduced with shRPS19; assay: Autophagy induction (p62, LC3-I, LC3-II protein levels) in K562 cells transduced with shRPS19; type: cell-based, human; settings: 5-FU 100 nM
Procedure: (FIG. 13A) Induction of autophagy by SMER28 (40 μM) monitored by protein levels of p62, LC3-I, and LC3-II after 24 hours. Cells were also treated with 5-FU (100 nM) to induce autophagy, or inhibitor of transcription actinomycin D (ActD; 100 nM). (FIG. 13B) Induction of autophagy by SMER28 (40 μM) monitored by protein levels of p62, LC3-I, and LC3-II after 24 hours treatment with or without lysosomal blockade with bafilomycin A (200 nM for 4 hours). Untreated samples are shown at higher exposure, to capture dynamic changes in the LC3-II levels. Rapamycin (200 nM) is a positive control. LC3-II levels relative to GAPDH are quantitated on the right. (FIG. 13C) Erythroid differentiation of CD34-5F cells transduced with shRNAs for luciferase (LUC) or ATG5±SMER28. Representative flow plots and quantitation showing the number of erythroid cells induced by SMER28 (10 μM) normalized to DMSO. 2 control luciferase shRNAs and 2 ATG5 shRNAs are included (knockdown efficiency in hematopoietic cells of 58% and 50%, respectively), each with 2 independent lines; p=0.005, 3 independent experiments. (FIG. 13D) Atg5 deficiency causes anemia in zebrafish. Wild-type zebrafish embryos were treated with 1.6 ng atg5 or missense morpholino, and hemoglobin staining was visualized with benzidine staining at 40 hpf with SMER28 (1 μM). Representative images (left), and quantitation (right) with embryos grouped by high, medium, and low levels of benzidine staining.
SMER28 was identified as an mTOR-independent inducer of autophagy, by synergizing with rapamycin to promote clearance of protein aggregates in models of neurodegenerative disease (Sarkar et al., 2007; Tian et al., 2011). Autophagy is a pro-survival pathway induced by a variety of stresses, such as nutrient limitation or protein aggregation. Autophagy is required for clearance of mitochondria during terminal erythroid maturation (Mortensen and Simon, 2010), but has not been linked with earlier stages of erythropoiesis. To determine if SMER28 modulates autophagy in erythroid cells, we interrogated the levels of p62 and LC3 in K562 erythroleukemia cells transduced with shRPS19. SMER28 reduced p62 and increased the levels of […] LC3-II isoform associated with autophagosomes (FIG. 13A). […] To measure autophagic flux, we monitored LC3-II levels after blocking lysosomal fusion with bafilomycin A. SMER28 increased LC3-II levels following lysosomal blockade, similarly to the mTOR inhibitor rapamycin (FIG. 13B).
Drug treatments. SMER28 was purchased from Tocris and diluted in 10 mM aliquots in DMSO. The final concentration for CD34-5F and CB CD34^+erythroid treatments was 0.2-10 μM as indicated in the text. The final concentration for K562 cell treatments was 20-40 μM. […]

[2] = tested on: CB CD34+ cells; type: in vivo, NSG mice; settings: 1 mg/kg Dex (sodium-phosphate) for 4 weeks; p=0.04
Procedure: (FIG. 10A) SMER28 rescues RBC output in rps29^+/− zebrafish embryos. The level of hemoglobin in the yolk sac was visualized 40hpf with benzidine staining. Images are representative of the proportion of embryos indicated (of total counted). (FIG. 10B) Quantitation of SMER28 rescue for a range of 0.1-1 μM, with embryos grouped by high, medium, and low levels of hemoglobin staining. (FIG. 10C) Peripheral blood (PB) RBC counts and hematocrit in mice with irradiation-induced anemia. Mice were treated with the PEG400-based vehicle containing DMSO (VEH) (n=11), 1 mg/kg Dex (sodium-phosphate) (n=13), or 10 mg/kg SMER28 (n=9) for 3 weeks, bled, and assessed. Data are combined from 3 independent experiments. (FIG. 10D) Erythroid cells as proportion of the human graft in mice transplanted with DBA CD34-5F progenitors, and treated as in (FIG. 1c). (FIG. 10E) Levels of human engraftment in NSG mouse bone marrow (BM) transplanted with CB CD34^+ cells. Mice were treated with DMSO plus vehicle (VEH) (n=10), 1 mg/kg Dex (sodium-phosphate) (n=6), or 2 mg/kg SMER28 (n=11) for 4 weeks. (FIG. 10F) The proportion of erythroid, myeloid, and lymphoid (B cells) lineages within the human graft in vehicle- and SMER28-treated mice transplanted with CB CD34^+ cells. Only the effect on the erythroid lineage was significant. Data in FIGS. 10E-10G are pooled from 2 independent experiments. For all panels, *p<0.05, * *p<0.01.
Drug treatments. SMER28 was purchased from Tocris and diluted in 10 mM aliquots in DMSO. The final concentration for CD34-5F and CB CD34^+erythroid treatments was 0.2-10 μM as indicated in the text. The final concentration for K562 cell treatments was 20-40 μM. Ferric citrate (1-50 μM) and deferoxamine (100-200 μM) (Sigma) were dissolved in PBS and added on days 0-4 of “expansion” culture, and washed off prior to erythroid stage I (days 4-9) differentiation. For in vivo experiments, SMER28 aliquots were diluted in vehicle solution: 30% PEG-400, 5% propylene glycol, and 0.5% Tween-80. Dosing for human xenograft experiments was 2 mg/kg; for mouse models 10-20 mg/kg. Dexamethasone was purchased as Dex-sodium phosphate (DexSP) water-soluble formulation (Santa Cruz), and diluted in PBS vehicle (1 mg/kg). NSG mice were sub-lethally irradiated at 275 rads, and administered 100 μl of drug or vehicle by oral gavage daily.

[3] = tested on: CD71+ cells in a erythroid cell population; assay: Percentage of CD71+ cells in an erythroid cell population in vitro; type: cell-based; settings: between 5-20 μM in vitro
Excerpt: Accordingly, in some embodiments, an autophagy activator as disclosed herein can be administered to a subject according to the methods as disclosed herein in an effective dose to increase the levels of CD71+ cells in an erythroid cell population obtained from the subject by at least about 1%, at least about 2%, at least about 3%, at least about 5%, at least about 10%, at least about 15%, least about 20%, at least about 30%, at least about 40%, at least about 50%, or more than 50%, as compared to in the absence of an autophagy activator.

O=c1[nH]cc(F)c(=O)[nH]1 [5-fluorouracil, reference compound]
conversion of cytosolic LC3-I into LC3-II [1]: induced

C[C@@H]1C[C@H]2[C@@H]3CCC4=CC(=O)C=C[C@]4(C)[C@@]3(F)[C@@H](O)C[C@]2(C)[C@@]1(O)C(=O)CO [Dex, Dexamethasone, reference compound]
RBC output as proportion of human graft [2]: 10.4%

CN1CCN(CCCN2c3ccccc3Sc3ccc(C(F)(F)F)cc32)CC1 [TFP]
percentage of CD71+ cells [3]: restored
